Data: ChEMBL document CHEMBL1201862, “PubChem BioAssay data set” (2004)
Calls of active or inactive are those of the source. Rule as the data show it, for most assays here: actives have a measured EC50 and inactives only a lower limit.

Columns and labels:
[1] = Luminescence Cell-Based Dose Confirmation HTS to Identify Activators of 5'UTR Stem-Loop Driven Alpha-Synuclein mRNA Translation in H4 Neuroglioblastoma Cells. [Related pubchem assays: 1829 (Project Summary), 1814 (Primary HTS)]; format: functional
[2] = Luminescence Cell-Based Dose Response HTS to Identify Activators of Luciferase Translation or Activity in H4 […] Cells. [Related pubchem assays: 1829 (Project Summary), 1814 (Primary HTS)]; format: functional
[3] = system: H4; test: Luminescence Cell-Based Dose Response HTS to Identify Activators of 5'UTR Stem-Loop Driven Prion Protein mRNA Translation in H4 Neuroglioblastoma Cells. [Related pubchem assays: 1829 (Project Summary), 1814 (Primary HTS)]; format: functional; settings: Homo sapiens
[4] = biological target: T1, Rac GTPase-activating protein 1 (Homo sapiens, UniProt Q9H0H5); test: blockers of MgcRacGAP-driven Rac1 GTP hydrolysis – biochemical, ADP Hunter fluorescence, primary and confirmatory, confirmation (AID 624330); format: functional
T1 sequence (Q9H0H5 whole entry): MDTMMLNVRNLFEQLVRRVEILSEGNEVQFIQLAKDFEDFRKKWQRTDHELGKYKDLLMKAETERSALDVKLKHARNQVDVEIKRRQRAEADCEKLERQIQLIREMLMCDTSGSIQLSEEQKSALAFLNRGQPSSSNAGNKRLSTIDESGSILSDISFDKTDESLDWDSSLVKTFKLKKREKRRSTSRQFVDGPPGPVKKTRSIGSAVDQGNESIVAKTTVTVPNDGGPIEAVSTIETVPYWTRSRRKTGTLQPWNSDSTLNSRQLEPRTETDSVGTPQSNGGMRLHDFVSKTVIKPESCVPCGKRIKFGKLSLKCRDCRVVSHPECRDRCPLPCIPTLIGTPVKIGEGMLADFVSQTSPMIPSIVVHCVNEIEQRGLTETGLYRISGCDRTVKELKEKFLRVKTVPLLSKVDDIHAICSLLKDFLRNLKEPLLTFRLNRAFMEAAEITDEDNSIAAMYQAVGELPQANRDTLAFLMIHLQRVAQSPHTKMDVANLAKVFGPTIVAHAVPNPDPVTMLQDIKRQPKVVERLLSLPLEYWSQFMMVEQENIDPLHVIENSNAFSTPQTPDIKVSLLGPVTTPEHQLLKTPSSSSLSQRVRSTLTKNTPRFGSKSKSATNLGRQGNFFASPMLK

[5] = biological target: Cytochrome P450 3A4 (Homo sapiens, UniProt P08684);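 also: CYP3A4 tested as one member of a cytochrome P450 panel screen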
Chain of Cytochrome P450 3A4 (P08684 whole entry): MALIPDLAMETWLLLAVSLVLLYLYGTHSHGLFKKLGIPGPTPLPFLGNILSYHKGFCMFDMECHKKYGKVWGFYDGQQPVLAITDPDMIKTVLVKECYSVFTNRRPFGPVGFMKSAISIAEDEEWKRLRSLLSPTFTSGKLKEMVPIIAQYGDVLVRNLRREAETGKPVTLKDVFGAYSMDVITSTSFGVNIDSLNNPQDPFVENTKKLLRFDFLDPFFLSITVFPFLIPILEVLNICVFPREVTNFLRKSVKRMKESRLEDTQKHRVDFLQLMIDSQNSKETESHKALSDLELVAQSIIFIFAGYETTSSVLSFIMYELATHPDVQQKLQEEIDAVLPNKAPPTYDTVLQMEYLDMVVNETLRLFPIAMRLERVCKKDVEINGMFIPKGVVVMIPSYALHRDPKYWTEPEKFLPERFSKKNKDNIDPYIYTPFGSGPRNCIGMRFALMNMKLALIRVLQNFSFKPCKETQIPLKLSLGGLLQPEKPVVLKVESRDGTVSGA

[6] = Trypanosoma cruzi growth suppression in host cells – NIH3T3 host cells, beta-gal luminescence, confirmation (AID 2044); format: functional, cell-based;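 also: intracellular parasites grown in NIH/3T3 mouse fibroblasts as host cells; luminescent beta-galactosidase reporter signal from transgenic T. cruzi replicating inside host cells; inhibitors lower the luminescence signal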
[7] = NIH3T3 cell viability loss – ATP luminescence, mouse fibroblasts, counter-screen, dose response (AID 2010); format: functional, cell-based;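 also: cells exposed to compound for about 90 hours before reading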
[8] = biological target: T2, Replicative DNA helicase DnaB (Mycobacterium tuberculosis, UniProt P9WMR3); test: DnaB intein splicing inhibitors, dose response, biochemical, cell-free fluorescence (AID 449749); format: functional
T2 sequence (P9WMR3 whole entry): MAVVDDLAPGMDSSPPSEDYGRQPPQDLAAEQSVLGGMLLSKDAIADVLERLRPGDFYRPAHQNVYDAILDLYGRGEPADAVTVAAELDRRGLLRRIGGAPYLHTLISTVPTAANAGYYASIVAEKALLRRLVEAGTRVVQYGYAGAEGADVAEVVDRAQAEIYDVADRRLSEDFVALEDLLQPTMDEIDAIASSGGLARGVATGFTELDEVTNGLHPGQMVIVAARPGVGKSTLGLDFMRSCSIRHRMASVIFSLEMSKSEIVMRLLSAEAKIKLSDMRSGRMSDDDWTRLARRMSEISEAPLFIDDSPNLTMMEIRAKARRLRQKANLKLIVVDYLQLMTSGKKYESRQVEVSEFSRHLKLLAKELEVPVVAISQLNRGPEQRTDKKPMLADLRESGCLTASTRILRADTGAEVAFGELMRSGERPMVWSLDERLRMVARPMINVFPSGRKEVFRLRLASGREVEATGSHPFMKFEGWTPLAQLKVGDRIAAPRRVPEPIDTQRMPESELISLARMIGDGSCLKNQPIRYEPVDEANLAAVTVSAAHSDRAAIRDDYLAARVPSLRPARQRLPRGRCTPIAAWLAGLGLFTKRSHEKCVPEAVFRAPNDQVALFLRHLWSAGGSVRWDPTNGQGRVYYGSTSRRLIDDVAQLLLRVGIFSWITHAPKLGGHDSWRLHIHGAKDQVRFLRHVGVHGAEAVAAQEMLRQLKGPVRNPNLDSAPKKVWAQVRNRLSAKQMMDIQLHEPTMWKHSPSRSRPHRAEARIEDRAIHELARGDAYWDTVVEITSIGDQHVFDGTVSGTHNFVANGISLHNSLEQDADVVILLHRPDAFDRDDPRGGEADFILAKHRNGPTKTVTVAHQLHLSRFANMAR

[9] = biological target: T3, Protein RecA (Mycobacterium tuberculosis, UniProt P9WHJ3); test: Fluorescence Cell-Free Homogeneous Dose Retest to Identify Inhibitors of RecA-Intein Splicing Activity. [Related pubchem assays (depositor defined):AID2097, AID2223, AID489010, AID492950]; format: functional
T3 sequence (P9WHJ3 whole entry): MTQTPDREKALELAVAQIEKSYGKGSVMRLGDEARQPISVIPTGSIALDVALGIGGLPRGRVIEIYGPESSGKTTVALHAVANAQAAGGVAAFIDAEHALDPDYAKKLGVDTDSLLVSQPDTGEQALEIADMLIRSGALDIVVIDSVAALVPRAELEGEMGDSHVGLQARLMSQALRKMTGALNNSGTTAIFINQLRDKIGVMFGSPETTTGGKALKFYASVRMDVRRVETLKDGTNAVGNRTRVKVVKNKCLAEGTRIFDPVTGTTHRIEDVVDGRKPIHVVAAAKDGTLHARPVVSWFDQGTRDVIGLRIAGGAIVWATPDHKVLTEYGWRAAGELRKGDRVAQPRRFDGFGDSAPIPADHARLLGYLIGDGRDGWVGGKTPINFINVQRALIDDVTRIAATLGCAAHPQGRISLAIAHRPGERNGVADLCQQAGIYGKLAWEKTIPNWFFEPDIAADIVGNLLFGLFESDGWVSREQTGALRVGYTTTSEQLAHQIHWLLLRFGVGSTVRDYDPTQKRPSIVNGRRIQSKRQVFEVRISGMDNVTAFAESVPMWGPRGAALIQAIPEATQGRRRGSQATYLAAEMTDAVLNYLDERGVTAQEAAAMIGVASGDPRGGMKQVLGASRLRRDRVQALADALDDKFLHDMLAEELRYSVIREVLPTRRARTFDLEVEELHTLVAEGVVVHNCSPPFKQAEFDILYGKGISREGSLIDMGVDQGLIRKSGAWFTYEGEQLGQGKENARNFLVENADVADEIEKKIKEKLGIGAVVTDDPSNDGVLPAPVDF

[10] = system: Streptococcus sp. 'group A'; test: Streptococcus pyogenes SK(-)GAS viability under kanamycin – luminescence, BacTiterGlo, confirmation, counter-screen for streptokinase expression inhibitor project, dose response (AID 1900); format: functional, organism-based
[11] = biological target: T4, Streptokinase A (Streptococcus pyogenes serotype M1, UniProt P10520); test: viability-normalized secreted streptokinase activity reduction – plasminogen activation absorbance, OD405, dose response (AID 1914); format: functional, Streptococcus pyogenes M1 GAS;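 also: secreted streptokinase activity via plasminogen activation per viability signal from cell pellet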
T4 sequence (P10520 whole entry): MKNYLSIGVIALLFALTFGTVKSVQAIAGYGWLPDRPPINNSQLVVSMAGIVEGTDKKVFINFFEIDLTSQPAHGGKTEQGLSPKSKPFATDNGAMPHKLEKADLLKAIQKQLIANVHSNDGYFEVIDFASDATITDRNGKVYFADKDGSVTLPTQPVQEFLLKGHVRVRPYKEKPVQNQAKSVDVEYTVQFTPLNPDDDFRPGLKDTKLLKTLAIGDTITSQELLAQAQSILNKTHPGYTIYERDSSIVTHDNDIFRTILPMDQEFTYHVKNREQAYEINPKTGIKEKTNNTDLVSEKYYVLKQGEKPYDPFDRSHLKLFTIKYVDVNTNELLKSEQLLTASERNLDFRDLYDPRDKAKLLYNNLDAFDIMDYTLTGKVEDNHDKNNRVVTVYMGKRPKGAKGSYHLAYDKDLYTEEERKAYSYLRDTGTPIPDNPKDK

[12] = system: Streptococcus; test: GAS UMAA2166 growth inhibition – luminescence, BacTiterGlo, counter-screen for streptokinase expression inhibitor project, dose response (AID 1915); format: functional, organism-based;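 also: potency for reduction of bacterial viability or growth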
[13] = system: INS1; test: INS-1E survival protection against cytokine death – cell-based, luminescence, retest, dose response (AID 449756); format: functional; settings: Rattus norvegicus, INS1;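 also: cell death triggered by IL-1 beta plus TNF-alpha plus IFN-gamma mixture; protective hits raise ATP signal compared with cytokine alone wells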

Row | Compound | IC50 [4] | AC50 [8] | EC50 [9] | further results
1 | COc1ccccc1NS(=O)(=O)c1ccc(-c2cc(C)no2)s1 |  |  |  | EC50 [1]: > 120 µM (not active); EC50 [2]: > 30 µM (not active); EC50 [3]: > 120 µM (not active)
2 | O=C(COc1ccccc1)N1CCN(CC2CC3C=CC2C3)CC1 (configuration not stated) | 175 µM (active) |  |  | 
3 | O=[N+]([O-])c1cccc(CN2CCN(Cc3ccco3)CC2)c1 | 98.5 µM (active) |  |  | 
4 | CC(C)(C)N=C(S)Nc1ccc(Nc2ccccc2)cc1 | 103 µM (active) |  |  | AC50 [5]: 11.2 µM (inconclusive)
5 | O=C(Oc1ccc2c(c1)OCO2)c1ccc(Br)c(S(=O)(=O)N2CCOCC2)c1 | 76.1 µM (active) |  |  | 
6 | COc1ccccc1Nc1nnc(S)s1 | 57.1 µM (active) |  |  | 
7 | Nn1c(SCc2ccccc2F)nnc1-c1cccnc1 |  |  |  | EC50 [1]: 64.2 µM (active); EC50 [2]: 36.8 µM (active); EC50 [3]: 33.4 µM (active)
8 | COC(=O)c1[nH]c2ccccc2c1NC(=O)Oc1ccccc1 | 15.9 µM (active) |  |  | 
9 | CN1CCc2nc(SC(C(=O)O)c3ccccc3)c(C#N)c(-c3cccs3)c2C1 (configuration not stated) |  | > 380 µM (inactive) | 12.3 µM (active) | EC50 [6]: 1.2 µM (active); EC50 [7]: > 30 µM (not active)
10 | COc1ccc(OCc2cc(C(=O)N(C)Cc3cc(C4CC4)[nH]n3)no2)c(Cl)c1 |  |  |  | EC50 [1]: 28.2 µM (active); EC50 [2]: 69.5 µM (active); EC50 [3]: 37.8 µM (active)
11 | Cc1ccccc1C1=NC(c2ccc(F)cc2F)ON1 (configuration not stated) |  |  |  | EC50 [1]: 33.6 µM (active); EC50 [2]: 8.1 µM (active); EC50 [3]: 33.8 µM (active)
12 | CN1CCN(C2=C(Cl)C(=O)N(C3CCCCC3)C2=O)CC1 |  |  |  | EC50 [1]: 8.46 µM (active); EC50 [2]: 19.8 µM (active); EC50 [3]: > 120 µM (not active)
13 | COc1cccc(-c2cc(O)[nH]n2)c1 |  | 2.51 µM (active) | 0.757 µM (active) | 
14 | COc1cc(/C=C/CN2CCN(CCC(C)C)C(CCO)C2)ccc1O (configuration not stated) | 101 µM (active) |  |  | 
15 | Cc1cccc(C(=O)NC2CCCCCCC2)c1 |  |  |  | EC50 [1]: 29.8 µM (active); EC50 [2]: 11.9 µM (active); EC50 [3]: > 120 µM (not active)
16 | CC1(C)CC(CCNC(=O)CCl)(c2ccccc2)CCO1 (configuration not stated) |  | 179 µM (active) | 14.5 µM (active) | 
17 | CC(C)NCC(=O)Nc1c2c(nc3ccccc13)CCC2 | 53.2 µM (active) |  |  | 
18 | COc1ccc(Br)cc1[C@H]1[C@@H]2C=CCC[C@@]2(C)C(=O)N1Cc1ccccc1 |  | > 380 µM (inactive) | 26.7 µM (active) | EC50 [10]: 7.12 µM (active); EC50 [11]: 37.6 µM (active); EC50 [12]: 11.1 µM (active)
19 | Cc1nc2cc(NC(=O)N3CCC(c4ccccc4)C3)ccc2n1C (configuration not stated) |  |  |  | EC50 [1]: 46.9 µM (active); EC50 [2]: 17.7 µM (active); EC50 [3]: 27.4 µM (active)
20 | O=C(NNC(=S)Nc1ccccc1)c1cccs1 |  |  |  | EC50 [1]: 11.2 µM (active); EC50 [2]: 12.9 µM (active); EC50 [3]: 75.4 µM (active)
21 | Oc1c2c(nn1-c1ccccc1)CCSC2 |  | 12 µM (active) | 13.7 µM (active) | 
22 | Cc1n[nH]c2c1C(c1ccsc1)C(C#N)=C(N)O2 (configuration not stated) |  | 11 µM (active) | 4.1 µM (active) | 
23 | Nc1ccc2c(c1)Cc1cc(N)c(Br)cc1-2 | 7.57 µM (active) |  |  | 
24 | CC(C)(C)c1[nH]nc2c1C(c1ccco1)C(C#N)=C(N)O2 (configuration not stated) |  | 3.88 µM (active) | 1.21 µM (active) | 
25 | CC1Nc2ncnc(N3CCc4ccccc4C3)c2N(Cc2ccc(Cl)cc2)C1=O (configuration not stated) |  | > 380 µM (inactive) | 30.9 µM (active) | 
26 | CC1(C)CC(=O)C=C(Nc2ccc(O)cc2)C1 | 20.2 µM (active) |  |  | 
27 | O=C(CNC(=O)c1cccnc1)N/N=C/c1ccc(O)cc1O | 97.4 µM (active) |  |  | 
28 | N#Cc1nc(N)nc(N(c2ccccc2)c2ccccc2)n1 |  | 39.8 µM (active) | 66.6 µM (active) | 
29 | CC1=C(CC(=O)c2ccc(Cl)cc2)C(=O)c2ccccc2C1=O |  | 7.84 µM (active) | 1.24 µM (active) | AC50 [13]: 8.26 µM (active)
